The test system of the assay is IL-2. The assay is described as follows: PHA-IL2 (cell activation and cytokine analysis). In kind it is cell-based. The note with it: 50% inhibition concentration class. On the procedure: Cells to be tested may include, but are not limited to, a) Jurkat (a transformed human T cell leukemia), b) whole blood isolated from human or rodent sources, c) peripheral blood mononuclear cells (PBMC) freshly isolated from human or rodent whole blood, or d) purified fractions of PBMC (e.g., CD4 T cells). Cells are plated in 96-well plates at a final density of 1.0-2.0×10^6 cells/ml in 150 ul of assay medium (RPMI+0.5% fetal calf serum). Test compounds are included at a final concentration of ≤20 uM and generally pre-incubated with cells for 30 minutes prior to stimulation. An appropriate stimulus is added, including but not limited to, a) phytohemagglutinin (PHA), b) phorbol myristate acetate (PMA) and ionomycin, or c) stimulatory antibodies to the T cell receptor (TCR) complex (e.g., anti-CD3ε) and CD28. Cell cultures are stimulated for 24-48 hours in a humidified incubator (37 degrees C./5% CO2). A fraction of the culture supernatant is than harvested from each well and assayed for the presence of appropriate cytokine using standard ELISA. Cytokines to be analyzed may include IL-2, IL-4, IL-10, IL-17, IL-22, IFNγ, and/or TNFα. If required, the number of cytokine producing cells can be determined using intracellular staining and flow cytometry. […]
A word on the IC50: it is the point on the concentration scale where inhibition reaches its midpoint. Consider `N#Cc1ccc(-c2ccccc2OCC(=O)N2CCC(CCc3ccc4c(c3)NC(=O)CO4)CC2)cc1` [Compound 257], for which the IC50 was in the range of 1000 to 10000 nM.
`COc1cccc(CCC2CCN(C(=O)COc3cccnc3-c3ccc(F)cc3O)CC2)c1` [Compound 350] returned an IC50 of less than 1000 nM.
The result for `NC(=O)c1ccc(-c2ccccc2OCC(=O)N2CCC(CCc3ccc4c(c3)OCO4)CC2)cc1` [Compound 183] reads 10000 to 50000 nM.
`O=C(c1ccccc1)c1ccc(-c2ccccc2OCC(=O)N2CCC(CCc3ccc(O)cc3)CC2)cc1` [Compound 314] showed a half-inhibitory concentration (IC50) of less than 1000 nM.
The result for `COc1ccccc1CCC1CCN(C(=O)COc2ccccc2-c2ccccc2)CC1` [Compound 126] reads 1000 to 10000 nM; that for `O=C(O)c1ccc(-c2ccccc2OCC(=O)N2CCC(CCc3ccc4c(c3)OCO4)CC2)cc1` [Compound 157], 10000 to 50000 nM.
Take `O=C(COc1ccccc1-c1ccc(F)nc1)N1CCC(CCc2ccc3c(c2)OCCCO3)CC1` [Compound 266]: the IC50 was less than 1000 nM.
As to `C=C(C)c1cccc(-c2ccccc2OCC(=O)N2CCC(CCc3ccc4c(c3)OCO4)CC2)c1` [Compound 205], the IC50 was in the range of 1000 to 10000 nM.
The result for `O=C(COc1ccccc1-c1cccc(F)c1)N1CCC(CCc2ccc3c(c2)OCO3)CC1` [Compound 187] reads 1000 to 10000 nM; that for `Nc1ccc(CCC2CCN(C(=O)COc3ccccc3-c3ccccc3)CC2)cn1` [Compound 255], 1000 to 10000 nM; that for `CN(C)CCCOc1ccc(-c2ccccc2OCC(=O)N2CCC(CCc3ccc4c(c3)OCO4)CC2)cn1` [Compound 171], 10000 to 50000 nM.
The result for `CN(C)C(=O)c1ccc(OCC(=O)N2CCC(CCc3ccccc3)CC2)c(-c2ccc(C#N)cc2)c1` [Compound 316] reads 1000 to 10000 nM; that for `CC(C)Oc1cccc(CCC2CCN(C(=O)COc3ccccc3-c3ccc(C#N)cc3OCc3ccccc3)CC2)c1` [Compound 442], less than 1000 nM; that for `O=C(/C=C/c1ccccc1-c1ccc(F)cc1O)N1CCC(CCc2ccc3c(c2)OCO3)CC1` [Compound 344], 1000 to 10000 nM.
Turning to `O=C(COc1ccccc1-c1cccc(OC(F)(F)F)c1)N1CCC(CCc2ccc3c(c2)OCO3)CC1` [Compound 179], the half-inhibitory concentration (IC50) is 1000 to 10000 nM.
The result for `O=C(COc1ccccc1-c1cccnc1)N1CCC(CCc2ccc3c(c2)OCO3)CC1` [Compound 194] reads 1000 to 10000 nM; that for `O=C(COc1ncccc1-c1ccc(F)cc1O)N1CCC(CCc2ccc3c(c2)OCO3)CC1` [Compound 329], 10000 to 50000 nM.
The result for `CC(C)Oc1cccc(CCC2CCN(C(=O)COc3cccnc3-c3ccc(C#N)cc3)CC2)c1` [Compound 411] reads less than 1000 nM; that for `CC(C)Oc1cccc(CCC2CCN(C(=O)COc3cccnc3-c3ccc(F)cc3O)CC2)c1` [Compound 408], less than 1000 nM.
The result for `O=C(COc1ccccc1-c1ccc2[nH]ncc2c1)N1CCC(CCc2ccc3c(c2)OCCCO3)CC1` [Compound 267] reads less than 1000 nM; that for `Cc1ccc(C#CC2CCN(C(=O)COc3ccc(C#N)cc3-c3ccc(C#N)cc3)CC2)nn1` [Compound 428], 1000 to 10000 nM.
`O=C(COc1ccccc1-c1ccc2[nH]ncc2c1)N1CCC(CCc2ccccc2)CC1` [Compound 272] yielded an IC50 of less than 1000 nM.
The result for `CCCCOc1cccc(-c2ccccc2OCC(=O)N2CCC(CCc3ccc4c(c3)OCO4)CC2)c1` [Compound 246] reads 1000 to 10000 nM; that for `O=C(COc1cccnc1-c1ccc(F)cc1O)N1CCC(CCc2cccc(OC3CCCC3)c2)CC1` [Compound 410], less than 1000 nM.
The result for `N#Cc1ccc(-c2ccccc2OCC(=O)N2CCC(CCc3ccc4c(c3)OCO4)CC2)c(F)c1` [Compound 251] reads less than 1000 nM; that for `CN1CC(NC(=O)c2ccc(OCC(=O)N3CCC(CCc4ccccc4)CC3)c(-c3ccc(C#N)cc3)c2)C1` [Compound 367], 1000 to 10000 nM; that for `CC(C)Oc1cccc(CCC2CCN(C(=O)COc3ccccc3-c3ccc4[nH]cnc4c3)CC2)c1` [Compound 398], less than 1000 nM.
`O=C(COc1ccccc1-c1ccc(Cl)cc1)N1CCC(CCc2ccc3c(c2)OCO3)CC1` [Compound 190]: the IC50 was less than 1000 nM.
`N#Cc1ccc(-c2ccccc2OCC(=O)N2CCC(CCc3cccc(OC(F)F)c3)CC2)cc1` [Compound 434] gave an IC50 of less than 1000 nM.
`Cc1ccc(-c2ccccc2OCC(=O)N2CCC(CCc3ccc4c(c3)OCO4)CC2)cc1` [Compound 202] displayed an IC50 of 1000 to 10000 nM.
On to `N#Cc1ccc(OCC(=O)N2CCC(CCc3cccc(O)c3)CC2)c(-c2ccc(C(=O)c3ccccc3)cc2)c1` [Compound 417], for which the IC50 is less than 1000 nM.
Consider `Cc1cc(F)ncc1-c1ccccc1OCC(=O)N1CCC(CCc2ccc3c(c2)OCO3)CC1` [Compound 248], for which the IC50 was in the range of 10000 to 50000 nM.
The result for `O=C(COc1ccccc1-c1cc(F)c(F)c(F)c1)N1CCC(CCc2ccc3c(c2)OCO3)CC1` [Compound 200] reads less than 1000 nM.
The result for `Cc1ccc(F)cc1CCC1CCN(C(=O)COc2ccccc2-c2ccc(F)cc2O)CC1` [Compound 306] reads less than 1000 nM; that for `O=C(COc1ccccc1-c1ccc(F)cc1O)N1CCC(CCc2ccc(OCCN3CCOCC3)cc2)CC1` [Compound 349], 1000 to 10000 nM.
The result for `N#Cc1ccc(-c2cc(C(=O)NCCO)ccc2OCC(=O)N2CCC(CCc3ccccc3)CC2)cc1` [Compound 322] reads 1000 to 10000 nM; that for `O=C(COc1ccccc1-c1cccc(C(F)(F)F)c1)N1CCC(CCc2ccc3c(c2)OCO3)CC1` [Compound 204], less than 1000 nM; that for `O=C(COc1ccccc1-c1ccccc1F)N1CCC(CCc2ccc3c(c2)OCO3)CC1` [Compound 177], 1000 to 10000 nM.
Compound `O=C(NCCO)c1ccc(-c2ccccc2OCC(=O)N2CCC(CCc3ccc4c(c3)OCO4)CC2)cc1` [Compound 182] gave an IC50 of 10000 to 50000 nM.
For the compound `O=C(COc1cccnc1-c1ccc(F)cc1O)N1CCC(CCc2ccc3c(c2)OCO3)CC1` [Compound 326], the IC50 is 1000 to 10000 nM.
With `N#Cc1ccc(-c2ccccc2C2CC2C(=O)N2CCC(CCc3ccccc3)CC2)cc1` (centres unmarked) [Compound 404], the IC50 was less than 1000 nM.
On to `CC1Oc2ccc(CCC3CCN(C(=O)COc4ccccc4-c4ccccc4O)CC3)cc2OC1C` (centres unmarked) [Compound 278], for which the half-inhibitory concentration (IC50) was less than 1000 nM.
The result for `CC(C)Oc1ccccc1CCC1CCN(C(=O)COc2ccccc2-c2ccc(C#N)cc2)CC1` [Compound 427] reads less than 1000 nM; that for `COc1cccc(CCC2CCN(C(=O)CSc3ccccc3-c3ccccc3)CC2)c1` [Compound 287], 1000 to 10000 nM; that for `O=C(COc1ccccc1-c1ccccc1)N1CCC(CCc2ccc(F)c(F)c2)CC1` [Compound 120], less than 1000 nM.
As for `Cc1ccccc1-c1ccccc1OCC(=O)N1CCC(CCc2ccc3c(c2)OCO3)CC1` [Compound 155], the IC50 was in the range of 1000 to 10000 nM.
The result for `N#Cc1cccc(-c2ccccc2OCC(=O)N2CCC(CCc3ccc4c(c3)OCO4)CC2)c1` [Compound 192] reads 1000 to 10000 nM; that for `Cc1cccc(-c2ccccc2OCC(=O)N2CCC(CCc3ccc4c(c3)OCO4)CC2)c1` [Compound 167], 1000 to 10000 nM.
The result for `COc1ccc(-c2ccccc2OCC(=O)N2CCC(CCc3ccc4c(c3)OCO4)CC2)cc1` [Compound 189] reads 1000 to 10000 nM.
The result for `O=C(CSc1ccccc1-c1ccccc1)N1CCC(CCc2ccc3c(c2)OCO3)CC1` [Compound 286] reads 1000 to 10000 nM.
Compound `N#Cc1ccc(-c2cc(C#N)ccc2OCC(=O)N2CCC(CCc3ccc4c(c3)OCO4)CC2)cc1` [Compound 420] came in with an IC50 of less than 1000 nM.
`O=C(COc1ccccc1-c1ccc(Cl)nc1)N1CCC(CCc2ccc(O)cc2)CC1` [Compound 283] registered an IC50 of less than 1000 nM.
The result for `CCCOc1cccc(-c2ccccc2OCC(=O)N2CCC(CCc3ccc4c(c3)OCO4)CC2)c1` [Compound 244] reads 1000 to 10000 nM.
Compound `CCc1ccc(OCC(=O)N2CCC(CCc3ccc4c(c3)OCO4)CC2)c(-c2ccc3[nH]ncc3c2)c1` [Compound 277] showed a half-inhibitory concentration (IC50) of less than 1000 nM.
The result for `N#Cc1ccc(-c2cc(C(N)=O)ccc2OCC(=O)N2CCC(CCc3ccccc3)CC2)cc1` [Compound 321] reads 1000 to 10000 nM; that for `COc1cccc(CCC2CCN(C(=O)C(C)Oc3c(C)cccc3-c3ccccc3)CC2)c1` (centres unmarked) [Compound 235], less than 1000 nM; that for `O=C(COc1ccccc1-c1ccc2[nH]ncc2c1)N1CCC(CCc2ccc(O)cc2)CC1` [Compound 281], less than 1000 nM.
The result for `O=C(COc1ccccc1-c1ccc(F)nc1)N1CCC(CCc2ccc3c(c2)OCO3)CC1` [Compound 193] reads less than 1000 nM.
The result for `C#CCOc1ccc(CCC2CCN(C(=O)COc3ccccc3-c3ccc(C(=O)c4ccccc4)cc3)CC2)cc1` [Compound 412] reads 1000 to 10000 nM.
Regarding `COc1ccc(CCC2CCN(C(=O)COc3ccccc3-c3ccc(F)cc3O)CC2)cc1OCCN1CCOCC1` [Compound 391], the IC50 lay in the range of 1000 to 10000 nM.
The result for `O=C(COc1ccccc1-c1ccc2c(c1)OCCO2)N1CCC(CCc2ccc3c(c2)OCO3)CC1` [Compound 173] reads 1000 to 10000 nM.
The result for `Cc1cnc(C#CC2CCN(C(=O)COc3ccc(C#N)cc3-c3ccc(C#N)cc3)CC2)cn1` [Compound 425] reads 1000 to 10000 nM; that for `O=C(COc1ccccc1-c1ccccc1)N1CCC(CCCc2ccccc2)CC1` [Compound 261], 1000 to 10000 nM; that for `O=C(COc1ccccc1-c1ccccc1)N1CCC(CCc2ccc3c(c2)OCCCO3)CC1` [Compound 208], less than 1000 nM.
`O=C(COc1cccnc1-c1ccc(F)cc1O)N1CCC(CCc2ccccc2)CC1` [Compound 330] showed an IC50 of 1000 to 10000 nM.
